# Experimental data reported in PMC7170889, “Synthesis and evaluation of designed PKC modulators for enhanced cancer immunotherapy” (Nature Communications, 2020).
# pKi: −log10 of the molar value. Like-named read-outs stand apart in the source and are kept apart here.
# What was measured:
# [1] = biological target: T1, PKCα (Homo sapiens, UniProt P17252); assay: PKC competitive binding assay with [3H]-phorbol dibutyrate (PKCα)
# T1 construct: purchased Invitrogen
# Protocol: (§1) With a panel of compounds bearing diverse functionality at C13, we began to explore how these modifications affect PKC binding and biological function. Because an obvious prerequisite for PKC pathway involvement is binding to PKC, compounds were initially evaluated for PKC affinity in a cell-free competitive binding assay with tritiated phorbol dibutyrate ([^3H]-PDBu). Assays were performed with representative members of both the conventional (PKCα) and novel (PKCδ) PKC families. Subsequently, compounds were assayed for PKC isoform translocation in real time in living cells using an optical assay. Translocation to the plasma membrane is the hallmark of PKC activation[18],[57],[60] and therefore monitoring the subcellular localization of a PKCδ-GFP fusion protein via confocal microscopy offers a convenient method for determining whether a compound enters a cell and engages its PKC isoform target. Finally and of clinical significance, we also determined the effect of compounds on CD22 surface expression in vitro in NALM6 cells, an ALL cell line previously studied in connection with CD22-targeted CAR T cell therapy, and two additional lymphoma cell lines[11],[31],[65].
# (§2) PKC Binding Assay Protocol […]
# (§3) competition with 3H-phorbol-12,13-dibutyrate (3H-PDBu) as described below. This procedure entails a glass-fiber filtration method to determine bound radioligand.
# (§4) Preparation of PKC binding assay buffer
# (§5) To a 50 mL polypropylene tube was added Tris-HCl (pH 7.4, 1 M, 1 mL), KCl (1 M, 2 mL), CaCl2 (0.1 M, 30 μL), and bovine serum albumin (BSA, 40 mg, Sigma-Aldrich). This mixture was diluted to 20 mL with deionized H2O and mixed gently. The buffer was stored on ice until use. The final […]
# (§6) Supplementary Table1. PKC binding assay buffer composition.
# (§7) Preparation of phosphatidylserine (PS) vesicles
# (§8) For every two assays, 3.5 mg phosphatidylserine (Avanti Polar Lipids, porcine, 25 mg/mL CHCl3 solution) was concentrated by removing chloroform under a stream of nitrogen followed by reduced pressure. The solid PS was suspended as vesicles in freshly prepared PKC binding assay buffer (3.5 mL) by sonicating six times for 30 sec, with a 30 sec rest between sonications (Branson Sonifier 250, power = 2, 50% duty cycle). The resulting milky cloudy mixture (1 mg/mL) was stored […]
# (§9) Preparation of PKC isoform solution
# (§10) Assay PKC was prepared by dissolving a 4 μg aliquot of the indicated recombinant human PKC isoform (Invitrogen) into 11.6 mL of PKC binding assay buffer (this amount is sufficient for two assays). The diluted PKC was stored on ice for immediate use.
# (§11) Preparation of 3H-PDBu solution
# (§12) 3H-PDBu (American Radiolabeled Chemicals, Inc.; 1 mCi/mL acetone solution; specific activity: […]) was diluted 10-fold with DMSO. The resulting 500 nM stock solution was further diluted with DMSO to 30 nM.
# (§13) Preparation of analog compound dilutions
# (§14) Compound dilutions were prepared by serially diluting from a chosen "high" concentration by factors of 3 or 4. For each analog compound, seven concentrations were used to define the […]
# (§15) To a polypropylene tube was added 3.3 mL of 1 mg/mL PS vesicles solution, 11 mL of PKC isoform solution, and 1.1 mL of 30 nM 3H-PDBu solution were added. The resulting solution was vortexed to mix and stored on ice.
# (§16) PKC binding assay protocol
# (§17) - Glass-fiber filters (Whatman GF/B) were prepared by soaking them in a solution of aqueous polyethyleneimine (10% by vol, 18 mL) in deionized water (600 mL) for ≥1h.
# (§18) - 500 mL "rinsing buffer" of 20 mM Tris, pH 7.4 was cooled on ice for the duration of the incubation period and for the remainder of the assay.
# Triplicate data points were obtained for each analog concentration. For each data point, 280 μL of "Master Mix" Solution and 20 μL of analog compound at a specified concentration were added to a polypropylene tube. Non-specific 3H-PDBu binding was assessed in triplicate by substitution
# [2] = tested on: CD22 surface expression in 2F7 cells; assay: CD22 surface expression in 2F7 cells (flow cytometry); details: 1 nM or 10 nM, 48 h, n = 6
# Protocol: (§19) Compound was washed out and cells were sub-cultured for the indicated times. […] CD22 surface expression was then assayed by flow cytometry (n = 3 biological replicates; data presented as mean values ± SE). c JB cells were incubated with 1 nM (blue bars) or 10 nM (orange bars) of compound for 48 h. CD22 surface expression was then assayed by flow cytometry (n = 6 biological replicates; data presented as mean values ± SE). d 2F7 cells were incubated with 1 nM (blue bars) or 10 nM (orange bars) of compound for 48 h. CD22 surface expression was then assayed by flow cytometry (n = 6 biological replicates; data presented as mean values ± SE).
# (§20) JB is an Epstein–Barr virus (EBV)-negative AIDS-lymphoma cell line originally grown out of a bone marrow sample derived from an HIV+ individual, which harbors the Burkitt lymphoma translocation[66]. 2F7 is an AIDS-associated non-Hodgkin’s lymphoma cell line of the Burkitt subtype, which is positive for EBV[67].
# (§21) AIDS-NHL cell lines were incubated in IF10 medium, consisting of IMDM
# (§22) medium (Life technologies) containing 10% fetal bovine serum (FBS, Omega Scientific), 100
# (§23) units/mL of penicillin, and 100 μg/ml of streptomycin (Invitrogen). Cells were incubated at 37 °C
# (§24) AIDS-NHL cells were cultured in a u-bottomed 96-well
# (§25) tissue culture plates with a cell density of 200,000 cells/well in a 200 μL volume of IF10 media
# (§26) were exposed to compound for the either 24 or 48 h before staining and flow cytometric analysis
# (§27) Cells in each well were washed with phosphate buffered saline (PBS) containing
# (§28) 2% FBS, then cells were centrifuged for 9 min at 233 xg and resuspended in 50 μL of a 1:1 dilution
# (§29) of phosphate buffered saline (PBS): Human AB serum (Sigma).
# (§30) cells were washed and fixed in 2% paraformaldehyde. Stained samples were stored at 4 °C.
# (§31) cytometry samples were analyzed using a FACSCelesta (BD Biosciences) flow cytometer and data
# (§32) were analyzed using FlowJo software (version 10).
# [3] = tested on: PKC; assay: PKC competitive binding assay, isoform not specified; parameters: species or system human
# Protocol: as §1, §2, §3, §4, §5, §6, §7, §8, §9, §10, §11, §12, §13, §14, §15, §16
# - Glass-fiber filters (Whatman GF/B) were prepared by soaking them in a solution of […]
# [4] = tested on: CD22 surface expression in JB cells; assay: CD22 surface expression in JB cells (flow cytometry); details: 1 nM or 10 nM, 48 h, n = 6
# Protocol: as §19, §20, §21, §22, §23, §24, §25, §26, §27, §28, §29, §30, §31, §32
# [5] = tested on: CD22 surface expression in NALM6 cells; assay: CD22 surface expression in NALM6 cells (flow cytometry); format: cell-based, human
# Protocol: CD22 Surface Expression Protocol – NALM6 Cells […]
# unless otherwise noted below) at 37 ° C in an incubator (5% CO2). Cell cultures were maintained […]
# Cell suspension from a confluent T75 flask (Fisher) was transferred to a 15 mL falcon tube and centrifuged at 1100 rpm for 7 minutes. The supernatant was aspirated, and the cell pellet was […]
# Cells were counted using a Countess II Automated Cell
# 199 µL of this stock was added to 24 wells (enough for triplicate measurements for 8 different experimental conditions) in a 96-well plate. Dosing was […]
# each experiment. 1 µL of DMSO or the appropriate stock solution of compound in DMSO was added to each well. Cells were incubated for 24 hours, at which point the cell suspensions were transferred to 1.5 mL Eppendorf tubes and diluted with 1.0 mL of PBS (Hyclone, without Ca2+ or Mg2+). Samples were centrifuged at 2000 rpm for 5 min at RT. The supernatant was aspirated, […]
# Cells were sub-cultured between 2 […]
# surface expression was assayed by flow cytometry.
# Cells from one well were counted using a Countess II Automated Cell Counter (Fisher). ~200,000 – 300,000 cells from each well were added to 1.5 mL Eppendorf tubes containing PBS (final volume ~1.2 mL). The cell suspensions were centrifuged at 1500 rpm for 7 minutes at 4 °C. The supernatant was aspirated, and the cell pellet was resuspended in 99 µL of pre-chilled FACS […]
# buffer (0.5% w/v BSA in PBS). […]
# minutes. Samples were then diluted with an additional 1.0 mL of FACS buffer and centrifuged at 1500 rpm for 7 minutes at 4 °C. The supernatant was aspirated, the cell pellets were resuspended in 200 µL FACS buffer, and the resulting suspensions were transferred to FACS tubes (Fisher, […]
# Cells were stained with DAPI and CD22 surface expression was analyzed using the FACScan Analyzer at the Stanford Shared FACS Facility. Data analysis was performed using FlowJo and Microsoft Excel.
# [6] = biological target: T2, PKCδ (Homo sapiens, UniProt Q05655); assay: PKC competitive binding assay with [3H]-phorbol dibutyrate (PKCδ); details: cell-free, competition with [3H]-PDBu, PS vesicles
# T2 construct: purchased Invitrogen
# T2 sequence (Q05655 whole entry): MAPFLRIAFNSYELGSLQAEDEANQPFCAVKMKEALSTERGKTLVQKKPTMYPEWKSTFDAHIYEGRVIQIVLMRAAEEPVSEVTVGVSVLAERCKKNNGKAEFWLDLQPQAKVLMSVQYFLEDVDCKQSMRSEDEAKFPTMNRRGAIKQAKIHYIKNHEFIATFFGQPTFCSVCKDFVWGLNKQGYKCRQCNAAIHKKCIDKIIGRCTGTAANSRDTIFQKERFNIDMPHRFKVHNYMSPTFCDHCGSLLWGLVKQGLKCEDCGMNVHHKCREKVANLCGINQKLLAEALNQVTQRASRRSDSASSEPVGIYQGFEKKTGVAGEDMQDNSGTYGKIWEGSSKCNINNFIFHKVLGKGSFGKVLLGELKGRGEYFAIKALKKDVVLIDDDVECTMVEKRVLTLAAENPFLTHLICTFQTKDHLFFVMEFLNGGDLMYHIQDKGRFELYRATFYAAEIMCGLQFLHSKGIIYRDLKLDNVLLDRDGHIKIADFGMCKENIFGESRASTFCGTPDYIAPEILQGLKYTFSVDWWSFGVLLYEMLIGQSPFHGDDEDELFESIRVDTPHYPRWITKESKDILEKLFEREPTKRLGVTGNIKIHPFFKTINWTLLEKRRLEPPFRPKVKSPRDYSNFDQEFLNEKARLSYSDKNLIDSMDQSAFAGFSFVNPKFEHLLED
# Protocol: as §1, §2, §3, §4, §5, §6, §7, §8, §9
# Assay PKC was prepared by dissolving a 4 μg aliquot of the indicated recombinant human PKC isoform (Invitrogen) into 11.6 mL of PKC binding assay buffer (this amount is sufficient for two assays). The diluted PKC was stored on ice for immediate use. […]
# μCi/mmol) was diluted 10-fold with DMSO. The resulting 500 nM stock solution was further diluted with DMSO to 30 nM.
# as §13, §14, §15, §16, §17, §18
# Triplicate data points were obtained for each analog concentration. For each data point, 280 μL of "Master Mix" Solution and 20 μL of analog compound at a specified concentration were added to a polypropylene tube. Non-specific 3H-PDBu binding was assessed in triplicate by substitution […]
# μM). Maximal 3H-PDBu binding was assessed in triplicate by substitution of the analog compound with 20 μL DMSO. The solutions were vortexed to mix, incubated at 37 °C for 10 min, and […]
# [7] = biological target: T3, PKCδ-GFP fusion protein (Homo sapiens, UniProt Q05655); assay: PKCδ-GFP translocation assay in living CHO-k1 cells (confocal microscopy); format: cell-based, Chinese hamster; details: for minimum effective concentration required to induce translocation of PKC-GFP to the membrane: tested at 200 and 1000 nM
# T3 construct: expressed in transfected cells; host or cells: CHO-k1 (Chinese hamster ovary, ATCC)
# T3 sequence (Q05655 whole entry, the tested form may be a part): as the sequence (Q05655 whole entry) above
# Protocol: as §1
# Scale bar represents 25 μm. Experiments performed in n = 3 biological replicates. b–d Cytosolic fluorescence normalized to t = 0 (time immediately prior to addition of compound to media) and plotted against time. Error bars excluded for clarity (data presented as the mean of n = 3 biological replicates). Individual curves with error bars included in Supplementary Information.
# PKCδ-GFP Translocation Assay Protocol
# Chinese hamster ovary factor K1 (CHO-k1, ATCC) cells were cultured in F-12 Kaighn’s media (Hyclone, 10% fetal bovine serum, 1% penicillin/streptomycin added, reffered to as F-12 +/+ below) at 37 ° C in an incubator (5% CO2). Cell cultures were maintained by splitting cells 1:3 when they reached ~75-100% confluence (every 2-3 days) as follows:
# (Gibco) was used to remove the cells from the culture flask (T75, Falcon). 1 mL of the cell suspension was then added to 9 mL of fresh F-12 +/+ and the sample was sub-cultured until reaching confluence (~2-3 days).
# Cells were counted using a Countess II Automated Cell Counter (Fisher). The cell suspension was diluted to 240,000 cells/mL with fresh F-12 +/+ and 2.5 mL of this diluted stock was added to one well in a 6-well plate. The cells were then cultured for 24 hours.
# Cells were transfected with Lipofectamine 2000 reagent (Invitrogen) or DA 13:11 at a 10:1 charge […]
# F-12 +/+ was aspirated and cells were washed with F-12 -/-. 2 mL of fresh F-12 -/- was then added to each well, taking care not to disturb adherent cells. For each well of CHO-k1 cells, 12.5 µL Lipofectamine 2000 reagent (Invitrogen) was added to 250 µL Opti-MEM reduced serum media (Invitrogen) in a polypropylene tube and incubated for 20 minutes at RT. Meanwhile, for each well, 4 µg of PKCδ-GFP pDNA and 250 µL Opti-MEM reduced serum media was added to a separate polypropylene tube. 250 µL of the Lipofectamine 2000 suspension was added to the DNA suspension and the solution incubated for 30 minutes at RT. 500 µL of the Lipofectamine/DNA suspension was added to the respective wells of the 6-well plate. The cells were then incubated at 37 ° C (5% CO2) for ~24 hrs.
# F-12 +/+ was aspirated and cells were washed with F-12 -/-. 2.4 mL of fresh F-12 -/- was then added to each well, taking care not to disturb adherent cells. A 4 µg aliquot of PKCδ-GFP pDNA was added to PBS (pH 5.5, final volume 100 µL). 5.6 µL of DA 13:11 (2 mM stock in DMSO) was then added to the DNA solution, and the mixture was gently mixed (by flicking) for 20 seconds, at which point it was added directly to the respective wells of the 6-well plate.
structure (smiles),measurement,setting,value
"CCC/C=C/C=C/C(=O)O[C@H]1/C(=C/C(=O)OC)C[C@H]2C[C@H]([C@@H](C)O)OC(=O)C[C@H](O)C[C@@H]3C[C@H](OC(C)=O)C(C)(C)[C@](O)(C[C@@H]4C/C(=C/C(=O)OC)C[C@H](/C=C/C(C)(C)[C@]1(O)O2)O4)O3 [Bryostatin 1, reference compound]",pKi,[1],9.10
same,upregulation of CD22 surface expression,[2],~ 2 fold
same,PKC binding affinity in words,[3]; conventional and novel PKC isoforms,single-digit nanomolar
same,upregulation of CD22 surface expression,[4],~ 2 fold
same,duration of sustained increase in CD22 surface expression following treatment,"[5]; NALM6 cells, 10 nM for 24 h, then washout and sub-culture",up to 7 days
same,increase in CD22 surface density,"[5]; NALM6 cells, 24 h incubation, Fig. 6",> 2 fold
CCCC=CC=CC(=O)OC1C(=CC(=O)OC)CC2CC(C(C)O)OC(=O)CC(O)CC3CC(OC(C)=O)C(C)(C)C(O)(CC4CC(=CC(=O)OC)CC(C=CC(C)(C)C1(O)O2)O4)O3 (centres unmarked) [SUW201],pKi,"[1]; read-out: Ki PKCα, cell-free, competition with [3H]-PDBu, PS vesicles",9.27
same,upregulation of CD22 surface expression,[2],~ 2 fold
same,upregulation of CD22 surface expression,[4],~ 2 fold
CCCC=CC=CC(=O)OC1C(=CC(=O)OC)CC2CC(C(C)O)OC(=O)CC(O)CC3CC(OC(C)=O)C(C)(C)C(O)(CC4CC(=CC(=O)OCc5ccccc5)CC(C=CC(C)(C)C1(O)O2)O4)O3 (centres unmarked) [SUW219],pKi,"[1]; cell-free, competition with [3H]-PDBu, PS vesicles, read-out: Ki PKCα",7.43
same,pKi,[6],7.60
same,decrease in affinity to PKC,"[3]; benzyl enoates, (Z) olefin geometry, comparator not stated",~ 2 fold
same,Emax at 1 µM,"[7]; CHO-K1, 1000 nM compound, CHO-k1 cells, n = 3, read-out: % Translocation (maximum translocation of PKCδ-GFP to the plasma membrane)",60%
same,minimum effective concentration required to induce translocation of PKC-GFP to the membrane,[7]; CHO-k1 cells,1000 nM
C=CCOC(=O)/C=C1/C[C@H]2C[C@]3(O)O[C@H](C[C@@H](O)CC(=O)O[C@@H]([C@@H](C)O)C[C@@H]4C/C(=C\C(=O)OC)[C@H](OC(=O)/C=C/C=C/CCC)[C@@](O)(O4)C(C)(C)/C=C/[C@@H](C1)O2)C[C@H](OC(C)=O)C3(C)C [SUW229],upregulation of CD22 surface expression,[2],~ 2 fold
same,upregulation of CD22 surface expression,[4],~ 2 fold
same,Emax at 0.2 µM,"[7]; CHO-K1, 200 nM compound, CHO-k1 cells, n = 3, read-out: % Translocation (maximum translocation of PKCδ-GFP to the plasma membrane)",50%
same,minimum effective concentration required to induce translocation of PKC-GFP to the membrane,[7]; CHO-k1 cells,200 nM
same,PKC activation dynamics (shape of translocation curve),"[7]; Fig. 5c, d",more sustained linear activation dynamics
same,fold induction at 0.001 µM,"[5]; Homo sapiens, NALM-6, 24 h, NALM6 cells at 1 nM relative to DMSO control, 24 h incubation, washout, 24 h sub-culture, n = 3, read-out: Fold increase CD22 expression",2.35
